# Data from patent US10351566B2, “Therapeutic compounds for pain and synthesis thereof” (priority 2015, dated 2019).
# Read-outs that look alike come from different tables or passages of the source. Marks after values point to notes of the source that are not given here.
# Tests used:
# [1] = in vivo; set-up: species or system mice; conditions: mouse, in vivo; for Kp: po, 50 mg/kg, mice, oral 50 mg/kg, 5 min to 8 h; for AUC(0-t) / Cmax: sc
# Protocol: Tissue distribution studies were conducted by administration of the compound to mice at a dose of 50 mg/kg orally and intravenously. Plasma and tissue samples were collected at various times from 5 min to 8 h. The tissue-to-plasma concentration ratios measured after oral dosing were: 0.6 (range: 0.3-1.1, brain), 3.2 (range: 1.9-5.0, spinal cord), 6.5 (range: 0.9-10.3, liver), 24.0 (range: 5.1-59.9, lung), 6.6 (range: 1.2-14.9, heart), 16.9 (range: 4.3-26.8, kidney), 77.5 (range: 11.5-341, spleen), 29.2 (range: 6.3-50.2, cecum), 67.4 (range: 11.6-326, colon), 5.2 (range: 2.1-8.0, testes). The concentration-time profiles of the compound in these tissues generally followed those in plasma. The tissue-to-plasma concentration ratios in these selected tissues are generally within the normal ranges of the marketed drugs.
# There are complex equilibria between the compound concentrations in blood, CSF and spinal cord. A high concentration in the CSF would yield a large concentration in the spinal cord. Since Formula 1 is a Pgp substrate and highly tissue-bound, its higher concentrations in the spinal cord tissue compared to the brain tissue are not surprising (Table 2).
# [2] = tested on: Taxol-induced neuropathic pain; assay: Taxol-induced neuropathic pain in mice, SC administration; type: in vivo
# Protocol: Study outline in brief: Animals were dosed daily with Taxol for a period of 8 consecutive days (Day 0 to Day 7). On study day 8, prior to drug dosing, the decrease in withdrawal force (tactile allodynia) was verified by applying the von Frey test. After assigning the animals to their treatment groups, the animals were treated daily for a period of 5 days with either vehicle or Formula 1 at different doses. Gabapentin at a dose of 150 mg/kg was dosed only on days of testing (day 8 and day 14).
# Response to heat stimuli was assessed using the hotplate apparatus set at 50ΥC. […] At baseline prior to Taxol dosing, the animals' response time to heat was 28.10±1.60 sec (vehicle-treated group). […] However, it is interesting to note that the beneficial activity of Formula 1 on heat hyperalgesia was more noticeable on study day 14, following repeated daily dosing of the compound, than on study day 8 following a single dose (Table 6).
smiles,measurement,setting,value
"CC(C)(C)C(=O)O[C@@H]1[C@@H]2[C@H]3C[C@H](C[C@@H]1N3Cc1ccccn1)CN2C(=O)CC(F)(F)F (relative stereo) [Formula 1, (2S*,3S*,3aS*,6R*,7aR*)-1-(pyridin-2-ylmethyl)-4-(3,3,3-trifluoropropanoyl)octahydro-1H-2,6-methanopyrrolo[3,2-b]pyridin-3-yl pivalate]",Kp,"[1]; read-out: tissue-to-plasma concentration ratio, spinal cord",3.2
same,Kp,"[1]; read-out: tissue-to-plasma concentration ratio, spinal cord, range",1.9 to 5
same,Kp,"[1]; read-out: tissue-to-plasma concentration ratio, spleen",77.5
same,Kp,"[1]; read-out: tissue-to-plasma concentration ratio, spleen, range",11.5 to 341
same,AUC(0-t),"[1]; Brain, Mean",790 ng·h/mL
same,Cmax,"[1]; Brain, Mean",1380 ng/mL
same,AUC(0-t),"[1]; Plasma, Mean",1380 ng·h/mL
same,Cmax,"[1]; Plasma, Mean",1900 ng/mL
same,AUC(0-t),"[1]; Spinal Cord, Mean",6210 ng·h/mL
same,Cmax,"[1]; Spinal Cord, Mean",11900 ng/mL
same,Tmax,"[1]; Plasma, SC, Mean",15 min
same,AUC(0-inf),"[1]; Plasma, SC, Mean, read-out: AUCINF_obs",1390 ng·h/mL
same,"response time to heat (50° C.), Mean","[2]; SC 1 mg/kg, Day 0 Pre-Taxol",28.8 s
same,"response time to heat (50° C.), Mean","[2]; SC 1 mg/kg, Day 8, 1 h",11.9 s
same,"response time to heat (50° C.), Mean","[2]; SC 1 mg/kg, Day 8, 2 h",22.8* sec
same,"response time to heat (50° C.), Mean","[2]; SC 1 mg/kg, Day 8, 4 h",18.9* sec
same,"response time to heat (50° C.), Mean","[2]; SC 1 mg/kg, Day 8, 6 h",18.5* sec
same,"response time to heat (50° C.), Mean","[2]; SC 1 mg/kg, Day 8 Pre-dosing",11.4 s
same,"response time to heat (50° C.), Mean","[2]; SC 1 mg/kg, Day 14, 1 h",14.9* sec
same,"response time to heat (50° C.), Mean","[2]; SC 1 mg/kg, Day 14, 2 h",24.6* sec
same,"response time to heat (50° C.), Mean","[2]; SC 1 mg/kg, Day 14, 4 h",24.2* sec
same,"response time to heat (50° C.), Mean","[2]; SC 1 mg/kg, Day 14, 6 h",22.0* sec
same,"response time to heat (50° C.), Mean","[2]; SC 1 mg/kg, Day 14 Pre-dosing",15.8* sec
same,"response time to heat (50° C.), Mean","[2]; SC 1 mg/kg, Day 17, No dosing",12.4 s
same,"response time to heat (50° C.), Mean","[2]; SC 3 mg/kg, Day 0 Pre-Taxol",28.6 s
same,"response time to heat (50° C.), Mean","[2]; SC 3 mg/kg, Day 8, 1 h",15.7 s
same,"response time to heat (50° C.), Mean","[2]; SC 3 mg/kg, Day 8, 2 h",19.4 s
same,"response time to heat (50° C.), Mean","[2]; SC 3 mg/kg, Day 8, 4 h",14.8 s
same,"response time to heat (50° C.), Mean","[2]; SC 3 mg/kg, Day 8, 6 h",14.1 s
same,"response time to heat (50° C.), Mean","[2]; SC 3 mg/kg, Day 8 Pre-dosing",12.2 s
same,"response time to heat (50° C.), Mean","[2]; SC 3 mg/kg, Day 14, 1 h",18.4* sec
same,"response time to heat (50° C.), Mean","[2]; SC 3 mg/kg, Day 14, 2 h",24.8* sec
same,"response time to heat (50° C.), Mean","[2]; SC 3 mg/kg, Day 14, 4 h",23.6* sec
same,"response time to heat (50° C.), Mean","[2]; SC 3 mg/kg, Day 14, 6 h",20.6* sec
same,"response time to heat (50° C.), Mean","[2]; SC 3 mg/kg, Day 14 Pre-dosing",19.7 s
same,"response time to heat (50° C.), Mean","[2]; SC 3 mg/kg, Day 17, No dosing",12.2 s
same,"response time to heat (50° C.), Mean","[2]; SC 10 mg/kg, Day 0 Pre-Taxol",28.5 s
same,"response time to heat (50° C.), Mean","[2]; SC 10 mg/kg, Day 8, 1 h",15.7 s
same,"response time to heat (50° C.), Mean","[2]; SC 10 mg/kg, Day 8, 2 h",17.8* sec
same,"response time to heat (50° C.), Mean","[2]; SC 10 mg/kg, Day 8, 4 h",15.8 s
same,"response time to heat (50° C.), Mean","[2]; SC 10 mg/kg, Day 8, 6 h",14.3 s
same,"response time to heat (50° C.), Mean","[2]; SC 10 mg/kg, Day 8 Pre-dosing",11.2 s
same,"response time to heat (50° C.), Mean","[2]; SC 10 mg/kg, Day 14, 1 h",18.5* sec
same,"response time to heat (50° C.), Mean","[2]; SC 10 mg/kg, Day 14, 2 h",18.7* sec
same,"response time to heat (50° C.), Mean","[2]; SC 10 mg/kg, Day 14, 4 h",19.3* sec
same,"response time to heat (50° C.), Mean","[2]; SC 10 mg/kg, Day 14, 6 h",15.5* sec
same,"response time to heat (50° C.), Mean","[2]; SC 10 mg/kg, Day 14 Pre-dosing",14.5 s
same,"response time to heat (50° C.), Mean","[2]; SC 10 mg/kg, Day 17, No dosing",10.4 s
same,response time to heat (hotplate 50° C.),"[2]; Taxol mice, SC, 10 mg/kg, 3 mg/kg and 1 mg/kg",active in increasing the response time
same,"analgesic activity (withdrawal force, von Frey)","[2]; Taxol mice, SC, dose as low as 1 mg/kg",profound analgesic activity
same,Dose of maximum activity,"[2]; Taxol model, SC, mice",1 mg/kg
same,Duration of activity at maximum effect,"[2]; Taxol model, SC, mice",3 days
same,Level of activity (% of maximum effect-baseline),"[2]; Taxol model, SC, mice",100%
